Results as given in PubChem BioAssay AID330 (DTP/NCI, 2004).
Several values for one entry are separate records, joined by “and”; a condition that tells them apart may be missing. Identical values can stand only once. Toxic doses and inconclusive results are not listed. How the source made its calls: active means survival T/C of 150% or more; inactive means T/C below 125% in these data.

Test system: P388 leukemia ip, CD2F1 mice, survival T/C
Experiment: NCI In Vivo Anticancer Drug Screen. Data for tumor model P388 Leukemia (intraperitoneal) in CD2F1 (CDF1) mice
Conditions: endpoint: median survival time, higher = longer survival
Method in brief: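 Mice carrying the transplanted tumor received test compound or vehicle. Survival was recorded in each group, and the value is the treated-group measurement divided by that of the vehicle-treated control group.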

Measured: T/C

COc1cccc2c1C(=O)c1c(O)c3c(c(O)c1C2=O)C[C@@](O)(C(=O)CO)C[C@@H]3OC1CC(N)C(O)C(C)O1 (stereo partly drawn)
active: dose: 0.13 mg/kg/injection, schedule: Q01DX009 (ip), vehicle: water 162 % of control | dose: 0.25 mg/kg/injection, schedule: Q01DX005 (ip), vehicle: water 153 % of control and 160 % of control and 161 % of control | dose: 0.3 mg/kg/injection, schedule: Q04DX003 (ip), vehicle: water 153 % of control | dose: 0.38 mg/kg/injection, schedule: Q01DX009 (ip), vehicle: water 151 % of control | dose: 0.44 mg/kg/injection, schedule: Q04DX003 (ip), vehicle: saline 158 % of control | dose: 0.58 mg/kg/injection, schedule: Q04DX003 (ip), vehicle: saline 159 % of control | dose: 0.62 mg/kg/injection, schedule: Q01DX001 (ip), vehicle: water 159 % of control | dose: 0.63 mg/kg/injection, schedule: Q01DX001 (ip), vehicle: water 154 % of control | dose: 0.97 mg/kg/injection, schedule: Q04DX002 (ip), vehicle: saline 157 % of control and 160 % of control | dose: 0.97 mg/kg/injection, schedule: Q04DX003 (ip), vehicle: water 163 % of control | dose: 1.04 mg/kg/injection, schedule: Q04DX002 (ip), vehicle: saline 161 % of control | dose: 1.08 mg/kg/injection, schedule: Q04DX003 (ip), vehicle: saline 159 % of control | dose: 1.3 mg/kg/injection, schedule: Q01DX001 (ip), vehicle: water 156 % of control | dose: 1.8 mg/kg/injection, schedule: Q01DX001 (ip), vehicle: saline 154 % of control | dose: 2.0 mg/kg/injection, schedule: Q01DX001 (ip), vehicle: DMSO 157 % of control | dose: 2.0 mg/kg/injection, schedule: Q03HX008 (ip), vehicle: saline 162 % of control | dose: 2.1 mg/kg/injection, schedule: Q01DX004 (ip), vehicle: saline 161 % of control | dose: 2.59 mg/kg/injection, schedule: Q01DX001 (ip), vehicle: saline 160 % of control | dose: 3.0 mg/kg/injection, schedule: Q01DX001 (ip), vehicle: saline 154 % of control | dose: 3.7 mg/kg/injection, schedule: Q01DX001 (ip), vehicle: saline 153 % of control | dose: 4.0 mg/kg/injection, schedule: Q01DX001 (ip), vehicle: DMSO 162 % of control | dose: 4.5 mg/kg/injection, schedule: Q04DX003 (iv), vehicle: saline 163 % of control | dose: 4.75 mg/kg/injection, schedule: Q01DX001 (ip), vehicle: saline 163 % of control | dose: 5.4 mg/kg/injection, schedule: Q04DX003 (ip), vehicle: saline 150 % of control | dose: 6.0 mg/kg/injection, schedule: Q04DX003 (ip), vehicle: water 154 % of control | dose: 11.25 mg/kg/injection, schedule: Q01DX001 (iv), vehicle: saline 156 % of control | dose: 15.0 mg/kg/injection, schedule: Q04DX003 (iv), vehicle: saline 153 % of control | dose: 16.0 mg/kg/injection, schedule: Q01DX001 (ip), vehicle: saline with Tween-80 151 % of control | dose: 17.5 mg/kg/injection, schedule: Q01DX001 (ip), vehicle: saline 150 % of control | dose: 32.0 mg/kg/injection, schedule: Q01DX001 (ip), vehicle: saline with Tween-80 161 % of control
inactive: dose: 0.04 mg/kg/injection, schedule: Q04DX003 (ip), vehicle: saline 116 % of control | dose: 0.04 mg/kg/injection, schedule: Q04DX003 (ip), vehicle: water 115 % of control | dose: 0.06 mg/kg/injection, schedule: Q01DX005 (sc), vehicle: water 100 % of control | dose: 0.06 mg/kg/injection, schedule: Q03HX008 (ip), vehicle: saline 114 % of control | dose: 0.06 mg/kg/injection, schedule: Q04DX003 (ip), vehicle: water 122 % of control | dose: 0.1 mg/kg/injection, schedule: Q04DX003 (ip), vehicle: water 121 % of control | dose: 0.12 mg/kg/injection, schedule: Q01DX005 (sc), vehicle: water 101 % of control | dose: 0.13 mg/kg/injection, schedule: Q03HX008 (ip), vehicle: saline 116 % of control | dose: 0.25 mg/kg/injection, schedule: Q01DX001 (ip), vehicle: Klucel (hydroxypropylcellulose) (HPC) 108 % of control | dose: 0.25 mg/kg/injection, schedule: Q01DX001 (ip), vehicle: saline with Tween-80 112 % of control | dose: 0.25 mg/kg/injection, schedule: Q01DX001 (ip), vehicle: saline 105 % of control | dose: 0.25 mg/kg/injection, schedule: Q01DX005 (sc), vehicle: water 103 % of control | dose: 0.38 mg/kg/injection, schedule: Q04DX003 (ip), vehicle: water 103 % of control | dose: 0.5 mg/kg/injection, schedule: Q01DX001 (ip), vehicle: Klucel (hydroxypropylcellulose) (HPC) 112 % of control | dose: 0.5 mg/kg/injection, schedule: Q01DX001 (ip), vehicle: saline with Tween-80 115 % of control | dose: 0.5 mg/kg/injection, schedule: Q01DX005 (oral), vehicle: water 108 % of control | dose: 0.5 mg/kg/injection, schedule: Q01DX005 (sc), vehicle: water 108 % of control | dose: 0.75 mg/kg/injection, schedule: Q04DX003 (ip), vehicle: water 118 % of control | dose: 1.0 mg/kg/injection, schedule: Q01DX001 (ip), vehicle: Klucel (hydroxypropylcellulose) (HPC) 110 % of control | dose: 1.0 mg/kg/injection, schedule: Q01DX001 (ip), vehicle: saline with Tween-80 119 % of control | dose: 1.0 mg/kg/injection, schedule: Q01DX001 (iv), vehicle: saline 113 % of control | dose: 1.0 mg/kg/injection, schedule: Q01DX005 (oral), vehicle: water 112 % of control | dose: 1.0 mg/kg/injection, schedule: Q01DX005 (sc), vehicle: water 113 % of control | dose: 1.0 mg/kg/injection, schedule: Q04DX003 (iv), vehicle: saline 100 % of control | dose: 1.5 mg/kg/injection, schedule: Q04DX003 (ip), vehicle: water 117 % of control and 120 % of control | dose: 2.0 mg/kg/injection, schedule: Q01DX001 (ip), vehicle: Klucel (hydroxypropylcellulose) (HPC) 122 % of control | dose: 2.0 mg/kg/injection, schedule: Q01DX001 (iv), vehicle: saline 108 % of control | dose: 2.0 mg/kg/injection, schedule: Q01DX005 (oral), vehicle: water 104 % of control | dose: 2.0 mg/kg/injection, schedule: Q04DX003 (iv), vehicle: saline 114 % of control | dose: 3.0 mg/kg/injection, schedule: Q04DX003 (ip), vehicle: water 120 % of control | dose: 4.0 mg/kg/injection, schedule: Q01DX001 (ip), vehicle: saline with Tween-80 122 % of control | dose: 4.0 mg/kg/injection, schedule: Q01DX001 (iv), vehicle: saline 123 % of control | dose: 4.0 mg/kg/injection, schedule: Q01DX005 (oral), vehicle: water 105 % of control | dose: 5.0 mg/kg/injection, schedule: Q01DX009 (ip), vehicle: saline 98 % of control and 105 % of control | dose: 5.4 mg/kg/injection, schedule: Q04DX003 (ip), vehicle: water 115 % of control | dose: 6.0 mg/kg/injection, schedule: Q04DX003 (oral), vehicle: saline 98 % of control | dose: 6.33 mg/kg/injection, schedule: Q01DX001 (iv), vehicle: saline 116 % of control | dose: 8.0 mg/kg/injection, schedule: Q01DX001 (oral), vehicle: saline 98 % of control | dose: 8.0 mg/kg/injection, schedule: Q01DX005 (oral), vehicle: water 107 % of control | dose: 8.0 mg/kg/injection, schedule: Q04DX002 (ip), vehicle: saline 108 % of control | dose: 10.0 mg/kg/injection, schedule: Q04DX003 (oral), vehicle: saline 105 % of control | dose: 12.0 mg/kg/injection, schedule: Q01DX001 (oral), vehicle: saline 106 % of control | dose: 16.0 mg/kg/injection, schedule: Q01DX001 (oral), vehicle: saline 100 % of control | dose: 16.0 mg/kg/injection, schedule: Q01DX005 (oral), vehicle: water 103 % of control | dose: 16.0 mg/kg/injection, schedule: Q04DX003 (iv), vehicle: saline 103 % of control | dose: 16.7 mg/kg/injection, schedule: Q04DX003 (oral), vehicle: saline 107 % of control and 112 % of control | dose: 20.0 mg/kg/injection, schedule: Q01DX001 (oral), vehicle: saline 103 % of control | dose: 27.8 mg/kg/injection, schedule: Q04DX003 (oral), vehicle: saline 100 % of control and 106 % of control | dose: 32.0 mg/kg/injection, schedule: Q01DX001 (ip), vehicle: Klucel (hydroxypropylcellulose) (HPC) 112 % of control | dose: 32.0 mg/kg/injection, schedule: Q01DX001 (oral), vehicle: saline 100 % of control | dose: 33.3 mg/kg/injection, schedule: Q01DX001 (oral), vehicle: saline 99 % of control and 106 % of control | dose: 46.3 mg/kg/injection, schedule: Q04DX003 (oral), vehicle: saline 103 % of control and 112 % of control | dose: 64.0 mg/kg/injection, schedule: Q01DX001 (oral), vehicle: saline 107 % of control | dose: 77.2 mg/kg/injection, schedule: Q04DX003 (oral), vehicle: saline 101 % of control | dose: 92.6 mg/kg/injection, schedule: Q01DX001 (oral), vehicle: saline 106 % of control | dose: 128.0 mg/kg/injection, schedule: Q01DX001 (oral), vehicle: saline 100 % of control | dose: 128.6 mg/kg/injection, schedule: Q04DX003 (oral), vehicle: saline 99 % of control | dose: 154.3 mg/kg/injection, schedule: Q01DX001 (oral), vehicle: saline 101 % of control
